Test system: Wistar (Crl:WI(Han)) rats
Assay: Mass spectrometry-based plasma metabolite profiling of rats treated with known inducers of thyroid function impairment
Type: in vivo, rat
Conditions: female rats, ratio of group medians vs controls; for 5-O-Methylsphingosine / Asparagine / Behenic acid (C22:0) / Citrate / Docosahexaenoic acid (C22:cis[4,7,10,13,16]6) / Glycine / Ketoleucine / Lysophosphatidylcholine (C18:2) / Phosphatidylcholine (C16:1, C18:2) / Phosphatidylcholine (C18:2, C20:4) / Pyruvate / Tricosanoic acid (C23:0) / erythro-Sphingosine / threo-Sphingosine: Table 1
Description: At the beginning of the study the animals were 10-11 weeks old. Each dose group in the studies consisted of five rats per sex, and was compared with controls (10 rats per sex). […] The dose levels were chosen to show the typical overt (high dose) and slight (low dose) toxicological symptoms of the substances as described in the literature or in BASF internal study reports.
Blood samples were withdrawn from the retro-orbital sinus in all rats under isoflurane anesthesia on study days 7, 14 and 28 after a fasting period of 16-20 hours.
For mass spectrometry-based metabolite profiling analysis, plasma samples were extracted by a proprietary method which delivers a polar and a non-polar fraction. For GC-MS analysis, the non-polar fraction was treated with methanol under acidic conditions to yield the fatty acid methyl esters. Both fractions were further derivatised with Omethyl-hydroxyamine hydrochloride and pyridine to convert oxo groups to Omethyloximes and subsequently with a silylating agent before analysis.
In LC-MS/MS analysis, both fractions were reconstituted in appropriate solvent mixtures. HPLC was performed by gradient elution on reversed phase separation columns. For mass spectrometric detection metanomics proprietary technology was applied, which allows target and high sensitivity MRM (Multiple Reaction Monitoring) profiling in parallel to a full screen analysis. […] Moreover, several hundred additional analytes giving a fingerprint of the sample were included in the methods.
Following comprehensive analytical validation steps, the data for each analyte were normalized against data from pool samples. These samples were run in parallel through the whole process to account for process variability.
The sex- and day-stratified heteroscedastic t-test (“Welch test”) was applied to compare treated groups with respective controls. p-Values and ratios of corresponding group medians were collected as metabolic profiles and fed into a database.

N#Cc1ccc(CC(=NNC(=O)Nc2ccc(OC(F)(F)F)cc2)c2cccc(C(F)(F)F)c2)cc1 (mixture of isomers) [Metaflumizone]
5-O-Methylsphingosine (fh7 (study day 7)): 0.99
Asparagine (fh7 (study day 7)): 0.75
Behenic acid (C22:0) (fh7 (study day 7)): 1.12
Citrate (fh7 (study day 7)): 0.84
Docosahexaenoic acid (C22:cis[4,7,10,13,16]6) (fh7 (study day 7)): 1.52
Glycine (fh7 (study day 7)): 0.93
Ketoleucine (fh7 (study day 7)): 0.97
Lysophosphatidylcholine (C18:2) (fh7 (study day 7)): 0.88
Phosphatidylcholine (C16:1, C18:2) (fh7 (study day 7)): 1.14
Phosphatidylcholine (C18:2, C20:4) (fh7 (study day 7)): 1.14
Pyruvate (fh7 (study day 7)): 0.64
Tricosanoic acid (C23:0) (fh7 (study day 7)): 1.28
erythro-Sphingosine (fh7 (study day 7)): 1.25
threo-Sphingosine (fh7 (study day 7)): 1.29
Sphingomyelin (d18:1, C16:0) (fh7 (study day 7), Table 1, first listing): 1.29
Sphingomyelin (d18:1, C16:0) (fh7 (study day 7), Table 1, second listing): 0.97
5-O-Methylsphingosine (fh14 (study day 14)): 1.42
Asparagine (fh14 (study day 14)): 0.57
Behenic acid (C22:0) (fh14 (study day 14)): 1.28
Citrate (fh14 (study day 14)): 0.62
Docosahexaenoic acid (C22:cis[4,7,10,13,16]6) (fh14 (study day 14)): 2.54
Glycine (fh14 (study day 14)): 0.97
Ketoleucine (fh14 (study day 14)): 0.81
Lysophosphatidylcholine (C18:2) (fh14 (study day 14)): 1.20
Phosphatidylcholine (C16:1, C18:2) (fh14 (study day 14)): 1.40
Phosphatidylcholine (C18:2, C20:4) (fh14 (study day 14)): 1.16
Pyruvate (fh14 (study day 14)): 0.54
Tricosanoic acid (C23:0) (fh14 (study day 14)): 1.41
erythro-Sphingosine (fh14 (study day 14)): 1.50
threo-Sphingosine (fh14 (study day 14)): 1.27
Sphingomyelin (d18:1, C16:0) (fh14 (study day 14), Table 1, first listing): 1.45
Sphingomyelin (d18:1, C16:0) (fh14 (study day 14), Table 1, second listing): 1.10
5-O-Methylsphingosine (fh28 (study day 28)): 2.07
Asparagine (fh28 (study day 28)): 1.17
Behenic acid (C22:0) (fh28 (study day 28)): 2.03
Citrate (fh28 (study day 28)): 0.88
Docosahexaenoic acid (C22:cis[4,7,10,13,16]6) (fh28 (study day 28)): 1.98
Glycine (fh28 (study day 28)): 1.63
Ketoleucine (fh28 (study day 28)): 0.81
Lysophosphatidylcholine (C18:2) (fh28 (study day 28)): 1.11
Phosphatidylcholine (C16:1, C18:2) (fh28 (study day 28)): 1.86
Phosphatidylcholine (C18:2, C20:4) (fh28 (study day 28)): 1.20
Pyruvate (fh28 (study day 28)): 0.72
Tricosanoic acid (C23:0) (fh28 (study day 28)): 2.56
erythro-Sphingosine (fh28 (study day 28)): 1.82
threo-Sphingosine (fh28 (study day 28)): 1.89
Sphingomyelin (d18:1, C16:0) (fh28 (study day 28), Table 1, first listing): 1.38
Sphingomyelin (d18:1, C16:0) (fh28 (study day 28), Table 1, second listing): 1.15

Source: US20120132797A1, “MEANS AND METHODS FOR DIAGNOSING THYROID DISORDERS” (BASF SE, priority 2009, published 2012)
